Here are results for 13 compounds from patent US11623919B2, “Heterocyclic P2X7 antagonists” (AXXAM S.P.A., priority 2017, dated 2023).

Holding throughout (assay type): cell-based
Test [1] concerns the target T1, P2X7 receptor (Mus musculus, UniProt Q9Z1M0).
T1 construct: mP2X7 (IC50; nM); other: mP2X7; HEK-293 cells stably transfected with P2X7 receptor, Bz-ATP at EC80, Fluo-8 NW; potency
T1 sequence (Q9Z1M0 1-595): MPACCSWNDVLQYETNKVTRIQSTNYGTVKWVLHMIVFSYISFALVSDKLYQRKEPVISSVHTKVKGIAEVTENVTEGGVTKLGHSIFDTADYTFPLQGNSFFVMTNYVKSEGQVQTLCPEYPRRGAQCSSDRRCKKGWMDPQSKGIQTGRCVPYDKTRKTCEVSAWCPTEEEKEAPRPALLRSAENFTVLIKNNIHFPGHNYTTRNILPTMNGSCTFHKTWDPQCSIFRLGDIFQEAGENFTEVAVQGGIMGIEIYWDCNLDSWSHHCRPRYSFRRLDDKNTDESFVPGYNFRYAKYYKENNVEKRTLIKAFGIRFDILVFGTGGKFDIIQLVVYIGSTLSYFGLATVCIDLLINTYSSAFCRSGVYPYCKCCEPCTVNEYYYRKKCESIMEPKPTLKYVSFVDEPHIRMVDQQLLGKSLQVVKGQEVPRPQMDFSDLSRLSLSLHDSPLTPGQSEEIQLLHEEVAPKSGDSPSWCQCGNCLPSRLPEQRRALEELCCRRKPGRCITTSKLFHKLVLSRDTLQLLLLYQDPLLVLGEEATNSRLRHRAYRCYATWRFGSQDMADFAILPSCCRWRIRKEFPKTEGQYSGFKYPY
Description: Screen Quest Fluo-8 No Wash Calcium Assay (Bz-ATP evoked Ca2+ influx, FLIPR). As to conditions: mP2X7; HEK-293 cells stably transfected with P2X7 receptor, Bz-ATP at EC80, Fluo-8 NW; potency ranges A-D. The procedure, abridged:
(§1)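 HEK-293 cells stably expressing P2X7 were loaded with Fluo-8 NW for 1 h at RT, then given compound, and 5 min later Bz-ATP at EC80. Fluorescence was read by FLIPR in low divalent cation buffer (0.3 mM Ca2+, 0 mM Mg2+). IC50 came from percent inhibition relative to reference antagonist A438079.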

The target in test [2] is T2, P2X7 receptor (Rattus norvegicus, UniProt Q64663).
T2 construct: rP2X7 (IC50; nM); other: rP2X7; HEK-293 cells stably transfected with P2X7 receptor, Bz-ATP at EC80, Fluo-8 NW; potency
T2 sequence (Q64663 1-595): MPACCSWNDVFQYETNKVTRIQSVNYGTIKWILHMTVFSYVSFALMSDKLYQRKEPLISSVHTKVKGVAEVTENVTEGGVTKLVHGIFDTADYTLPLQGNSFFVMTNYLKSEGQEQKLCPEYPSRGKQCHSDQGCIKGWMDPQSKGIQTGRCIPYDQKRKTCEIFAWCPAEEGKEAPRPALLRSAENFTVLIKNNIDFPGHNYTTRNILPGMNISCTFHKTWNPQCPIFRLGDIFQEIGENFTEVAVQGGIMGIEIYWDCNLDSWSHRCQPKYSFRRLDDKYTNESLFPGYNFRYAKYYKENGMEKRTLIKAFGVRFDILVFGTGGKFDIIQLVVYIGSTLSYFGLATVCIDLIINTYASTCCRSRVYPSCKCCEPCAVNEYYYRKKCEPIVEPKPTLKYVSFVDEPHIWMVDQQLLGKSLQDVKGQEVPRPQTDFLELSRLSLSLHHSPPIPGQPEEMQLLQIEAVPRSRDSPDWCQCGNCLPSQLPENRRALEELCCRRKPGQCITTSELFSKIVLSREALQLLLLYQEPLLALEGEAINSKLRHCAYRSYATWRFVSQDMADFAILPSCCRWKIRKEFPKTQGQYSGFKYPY
The test is described as above. As to conditions: rP2X7; HEK-293 cells stably transfected with P2X7 receptor, Bz-ATP at EC80, Fluo-8 NW; potency ranges A-D. The gist of the method: as §1

For test [3], the target named is T3, P2X7 receptor (Homo sapiens, UniProt Q99572).
T3 sequence (Q99572 1-595): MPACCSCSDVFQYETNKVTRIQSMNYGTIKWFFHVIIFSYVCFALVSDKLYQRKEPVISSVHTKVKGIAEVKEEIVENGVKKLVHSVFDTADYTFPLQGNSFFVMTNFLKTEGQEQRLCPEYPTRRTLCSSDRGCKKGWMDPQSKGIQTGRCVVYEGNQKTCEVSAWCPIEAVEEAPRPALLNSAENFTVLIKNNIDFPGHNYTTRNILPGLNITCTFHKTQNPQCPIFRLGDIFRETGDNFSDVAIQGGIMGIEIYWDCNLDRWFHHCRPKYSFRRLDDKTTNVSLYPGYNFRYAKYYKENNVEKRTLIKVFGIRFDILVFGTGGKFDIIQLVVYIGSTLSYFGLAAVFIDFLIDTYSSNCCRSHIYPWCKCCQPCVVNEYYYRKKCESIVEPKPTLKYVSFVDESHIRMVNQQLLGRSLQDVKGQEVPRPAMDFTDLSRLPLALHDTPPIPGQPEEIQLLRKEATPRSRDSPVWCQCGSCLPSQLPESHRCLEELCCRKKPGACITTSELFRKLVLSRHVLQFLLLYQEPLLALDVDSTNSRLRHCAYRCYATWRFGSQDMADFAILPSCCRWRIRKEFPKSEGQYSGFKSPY
Briefly: Automated patch-clamp (QPatch16X) P2X7 channel assay. More on the design: expressed in transfected cells; host or cells: HEK-293. As to conditions: HEK-293 cells expressing P2X7 channels; whole-cell, held at -80 mV; 100 microM BzATP; compound 1, 10, 100 and 1000 nM; read-out: Q-Patch (IC50). How it is done:
In order to directly monitor the block of P2X7 channel, an electrophysiological assay was developed and implemented on the QPatch16X automated electrophysiology instrument.
HEK-293 cells expressing the P2X7 channels were cultured in modified EMEM.
72 hours before experiment, 5 million cells were seeded onto T225 flasks. Just before the experiment cells were washed twice, detached from the flask with trypsin-EDTA, re-suspended in the suspension solution and placed on the QPatch 16x.
The compounds (20 mM in a 100% DMSO) stored at −20° C. were prepared the day of the experiment (a first dilution 1:20 in 100% DMSO to prepare a 1 mM stock solution, then a 1 microM solution in external solution+a serial dilution 1:10).
The standard whole-cell voltage clamp experiments were performed at room temperature. From these experiments the multihole technology was used and the data were sampled at 2 KHz.
The intracellular solution contained (mM) 135 CsF, 10 NaCl, 1 EGTA, 10 HEPES, (pH 7.2 with CsOH) whereas the extracellular contained (mM) 145 NaCl, 4 KCl, 0.5 MgCl2, 1 CaCl2, 10 HEPES, 10 Glc (pH 7.4 with NaOH).
After establishment of the seal and the passage in the whole cell configuration, the cells were held at −80 mV. The P2XR7 current was evoked by applying 100 microM of BzATP alone (4 times) and then in the presence increasing concentrations of the compound under investigation (1, 10, 100 and 1000 nM).
The pre-incubation periods 5 to 8 contain increasing concentrations of the compound of interest (1, 10, 100 and 1000 nM), as illustrated in FIGURE (application protocol).
The maximal inward current evoked by BzATP in absence or presence of increasing concentrations of the compounds under investigation was measured and normalized. The potential […] effect was measured as % of control and as IC50 determined fitting the dose-response curves data with the following equation: Y=100/(1+10^((Log IC50−X)*HillSlope))

Test [4] concerns the target T3, P2X7 receptor. Briefly: Screen Quest Fluo-8 No Wash Calcium Assay (Bz-ATP evoked Ca2+ influx, FLIPR). More on the design: hP2X7 (IC50; nM); other: hP2X7; HEK-293 cells stably transfected with P2X7 receptor, Bz-ATP at EC80, Fluo-8 NW; potency. As to conditions: hP2X7; HEK-293 cells stably transfected with P2X7 receptor, Bz-ATP at EC80, Fluo-8 NW; potency ranges A-D. The procedure, abridged: as §1

Structures are written as SMILES.

For the compound `CC(c1ccccc1)n1c(Cc2c(F)cccc2Cl)noc1=O` (stereo not shown) [Example 49, 3-[(2-chloro-6-fluorophenyl)methyl]-4-(1-phenylethyl)-4,5-dihydro-1,2,4-oxadiazol-5-one], the IC50 was 1000 to 10000 nM on P2X7 receptor [1], 200 to 1000 nM on P2X7 receptor [2], 391 nM at P2X7 receptor [3] and 1000 to 10000 nM on P2X7 receptor [4].

As for `Cc1ncsc1Cn1c(Cc2ccc(F)cc2)noc1=O` [Example 8, 3-[(4-fluorophenyl)methyl]-4-[(4-methyl-1,3-thiazol-5-yl)methyl]-4,5-dihydro-1,2,4-oxadiazol-5-one], the IC50 at P2X7 receptor [1] was over 10000 nM; on P2X7 receptor [2], over 10000 nM; on P2X7 receptor [4], 1000 to 10000 nM.

For `O=c1onc(Cc2c(F)cccc2Cl)n1CC1CCC(C(F)(F)F)CC1` (stereo not shown) [Example 184, 3-[(2-chloro-6-fluorophenyl)methyl]-4-{[4-(trifluoromethyl)cyclohexyl]methyl}-1,2,4-oxadiazol-5(4H)-one], the IC50 on P2X7 receptor [1], at P2X7 receptor [2] and on P2X7 receptor [4] was under 200 nM in each case.

With `Cn1ccnc1Cn1c(Cc2c(F)cccc2Cl)noc1=O` [Example 47, 3-[(2-chloro-6-fluorophenyl)methyl]-4-[(1-methyl-1H-imidazol-2-yl)methyl]-4,5-dihydro-1,2,4-oxadiazol-5-one], the IC50 on P2X7 receptor [1], at P2X7 receptor [2] and at P2X7 receptor [4] was over 10000 nM throughout.

`O=c1onc(CN2CCOc3ccccc32)n1CC1CCC(F)(F)CC1` [Example 231, 4-[(4,4-difluorocyclohexyl)methyl]-3-(3,4-dihydro-2H-1,4-benzoxazin-4-ylmethyl)-4,5-dihydro-1,2,4-oxadiazol-5-one]: the IC50 on P2X7 receptor [1], at P2X7 receptor [2] and on P2X7 receptor [4] was under 200 nM throughout.

Turning to `O=c1onc(Cc2c(F)cccc2Cl)n1Cc1ccoc1` [Example 44, 3-[(2-chloro-6-fluorophenyl)methyl]-4-(furan-3-ylmethyl)-4,5-dihydro-1,2,4-oxadiazol-5-one], the figures for the IC50 on P2X7 receptor [1], on P2X7 receptor [2] and on P2X7 receptor [4] were over 10000 nM, 1000 to 10000 nM and 1000 to 10000 nM, respectively.

Take `O=c1onc(Cc2c(F)cccc2Cl)n1CCN1CCC(F)(F)CC1` [Example 181, 3-[(2-chloro-6-fluorophenyl)methyl]-4-[2-(4,4-difluoropiperidin-1-yl)ethyl]-4,5-dihydro-1,2,4-oxadiazol-5-one]: the figures for the IC50 on P2X7 receptor [1], on P2X7 receptor [2] and at P2X7 receptor [4] were 1000 to 10000 nM, 1000 to 10000 nM and 200 to 1000 nM, respectively.

As to `CC1CC(F)(F)CCN1Cc1noc(=O)n1Cc1c(F)cccc1Cl` (stereo not shown) [Example 226, 4-[(2-chloro-6-fluorophenyl)methyl]-3-[(4,4-difluoro-2-methylpiperidin-1-yl)methyl]-4,5-dihydro-1,2,4-oxadiazol-5-one], the IC50 on P2X7 receptor [1], on P2X7 receptor [2] and on P2X7 receptor [4] was under 200 nM each time.

As to `O=c1onc(Cc2c(F)cccc2Cl)n1CC1CC1` [Example 83, 3-[(2-chloro-6-fluorophenyl)methyl]-4-(cyclopropylmethyl)-4,5-dihydro-1,2,4-oxadiazol-5-one], the IC50 on P2X7 receptor [1], on P2X7 receptor [2] and on P2X7 receptor [4] was over 10000 nM throughout.

Consider `O=c1snc(CC2CCC(F)(F)CC2)n1Cc1c(F)cccc1Cl` [Example 203, 4-[(2-chloro-6-fluorophenyl)methyl]-3-[(4,4-difluorocyclohexyl)methyl]-4,5-dihydro-1,2,4-thiadiazol-5-one], for which the IC50 on P2X7 receptor [1], at P2X7 receptor [2] and on P2X7 receptor [4] was under 200 nM each time.

For the compound `Cc1noc(Cn2c(CC3CCC(F)(F)CC3)noc2=O)n1` [Example 197, 3-[(4,4-difluorocyclohexyl)methyl]-4-[(3-methyl-1,2,4-oxadiazol-5-yl)methyl]-1,2,4-oxadiazol-5(4H)-one], the IC50 on P2X7 receptor [1], on P2X7 receptor [2] and at P2X7 receptor [4] was over 10000 nM in each case.

For the compound `O=c1onc(CN2CCCC(F)(F)C2)n1Cc1ccc(F)cc1` [Example 225, 3-[(3,3-difluoropiperidin-1-yl)methyl]-4-[(4-fluorophenyl)methyl]-4,5-dihydro-1,2,4-oxadiazol-5-one], the figures for the IC50 on P2X7 receptor [1], on P2X7 receptor [2] and at P2X7 receptor [4] were over 10000 nM, 1000 to 10000 nM and over 10000 nM, respectively.

With `O=c1onc(Cc2cccc(Cl)c2Cl)n1CC1CCC(F)(F)CC1` [Example 156, 3-[(2,3-dichlorophenyl)methyl]-4-[(4,4-difluorocyclohexyl)methyl]-4,5-dihydro-1,2,4-oxadiazol-5-one], the IC50 at P2X7 receptor [1] is 200 to 1000 nM; on P2X7 receptor [2], under 200 nM; on P2X7 receptor [4] it was under 200 nM.
